Laboratory results published in PubChem BioAssay (NCI).
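Step 1: Grow cells in 96-well plates. Step 2: Expose to compound for 48 hours at 5 concentrations. Step 3: Interpolate endpoints linearly; if unreached, use highest concentration. TGI is the concentration that stops growth completely.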

Assays:
Experiment in all cases: growth of human tumour cells (NCI), 48 h
NCI/ADR-RES ovarian = system: NCI/ADR-RES ovarian
CAKI-1 renal = system: CAKI-1 renal
A549 NSCLC = system: A549 NSCLC
SNB-19 CNS = system: SNB-19 CNS
MDA-MB-231 breast = system: MDA-MB-231 breast
SR leukemia = system: SR leukemia
HL-60(TB) leukemia = system: HL-60(TB) leukemia
DMS 114 small cell lung = system: DMS 114 small cell lung
HOP-62 NSCLC = system: HOP-62 NSCLC
HCC-2998 colon = system: HCC-2998 colon
OVCAR-8 ovarian = system: OVCAR-8 ovarian
COLO 205 colon = system: COLO 205 colon
IGROV1 ovarian = system: IGROV1 ovarian
NCI-H522 lung = system: NCI-H522 lung
M19-MEL melanoma = system: M19-MEL melanoma
TK-10 renal = system: TK-10 renal
NCI-H226 lung = system: NCI-H226 lung
RPMI-8226 leukemia = system: RPMI-8226 leukemia
DLD-1 colon = system: DLD-1 colon
PC-3 prostate = system: PC-3 prostate
HCT-15 colon = system: HCT-15 colon
SNB-78 CNS = system: SNB-78 CNS
OVCAR-3 ovarian = system: OVCAR-3 ovarian
UACC-62 melanoma = system: UACC-62 melanoma
HT29 colon = system: HT29 colon
HCT-116 colon = system: HCT-116 colon
SF-268 CNS = system: SF-268 CNS
SNB-75 CNS = system: SNB-75 CNS
HOP-92 NSCLC = system: HOP-92 NSCLC
K-562 leukemia = system: K-562 leukemia
BT-549 breast = system: BT-549 breast
XF 498 CNS = system: XF 498 CNS
NCI-H23 lung = system: NCI-H23 lung
SF-539 CNS = system: SF-539 CNS
SF-295 CNS = system: SF-295 CNS
MOLT-4 leukemia = system: MOLT-4 leukemia
MDA-MB-435 = system: MDA-MB-435
MDA-N = system: MDA-N
CCRF-CEM leukemia = system: CCRF-CEM leukemia
A498 renal = system: A498 renal
U251 CNS = system: U251 CNS
UO-31 renal = system: UO-31 renal
UACC-257 melanoma = system: UACC-257 melanoma
SK-MEL-2 melanoma = system: SK-MEL-2 melanoma
SK-MEL-5 melanoma = system: SK-MEL-5 melanoma
RXF 393 renal = system: RXF 393 renal
T-47D breast = system: T-47D breast
SN12C renal = system: SN12C renal
ACHN renal = system: ACHN renal
MALME-3M melanoma = system: MALME-3M melanoma
DU-145 prostate = system: DU-145 prostate
M14 melanoma = system: M14 melanoma
NCI-H460 lung = system: NCI-H460 lung
KM12 colon = system: KM12 colon
OVCAR-4 ovarian = system: OVCAR-4 ovarian
SK-MEL-28 melanoma = system: SK-MEL-28 melanoma
SK-OV-3 ovarian = system: SK-OV-3 ovarian
SW-620 colon = system: SW-620 colon
EKVX NSCLC = system: EKVX NSCLC
OVCAR-5 ovarian = system: OVCAR-5 ovarian
786-0 renal = system: 786-0 renal
HS 578T breast = system: HS 578T breast
LOX IMVI melanoma = system: LOX IMVI melanoma
MCF7 breast = system: MCF7 breast
LXFL 529 NSCLC = system: LXFL 529 NSCLC
DMS 273 small cell lung = system: DMS 273 small cell lung

Work on `CC1(C)O[C@H]2OC3CCC(=O)CC3(O)[C@H]2O1` (stereo partly drawn) yielded a TGI (NCI/ADR-RES ovarian) of over 100 µM, a TGI (CAKI-1 renal) of over 100 µM and a TGI (A549 NSCLC) of over 100 µM. The TGI (SNB-19 CNS) was over 100 µM, the TGI (MDA-MB-231 breast) was over 100 µM and the TGI (SR leukemia) was over 100 µM. It also gave a TGI (HL-60(TB) leukemia) of over 100 µM, a TGI (DMS 114 small cell lung) of over 100 µM and a TGI (HOP-62 NSCLC) of over 100 µM. The TGI (HCC-2998 colon) was over 100 µM, the TGI (OVCAR-8 ovarian) was over 100 µM and the TGI (COLO 205 colon) was over 100 µM. The TGI (IGROV1 ovarian) was over 100 µM, the TGI (NCI-H522 lung) was over 100 µM and the TGI (M19-MEL melanoma) was over 100 µM. It also gave a TGI (TK-10 renal) of over 100 µM, a TGI (NCI-H226 lung) of over 100 µM and a TGI (RPMI-8226 leukemia) of over 100 µM. It also gave a TGI (DLD-1 colon) of over 100 µM, a TGI (PC-3 prostate) of over 100 µM and a TGI (HCT-15 colon) of over 100 µM. The TGI (SNB-78 CNS) was over 100 µM, the TGI (OVCAR-3 ovarian) was over 100 µM and the TGI (UACC-62 melanoma) was over 100 µM. The TGI (HT29 colon) was over 100 µM, the TGI (HCT-116 colon) was over 100 µM and the TGI (SF-268 CNS) was over 100 µM. It also gave a TGI (SNB-75 CNS) of over 100 µM, a TGI (HOP-92 NSCLC) of over 100 µM and a TGI (K-562 leukemia) of over 100 µM. For the same compound, the TGI (BT-549 breast) was over 100 µM, the TGI (XF 498 CNS) was 97.2 µM and the TGI (NCI-H23 lung) was over 100 µM. It also gave a TGI (SF-539 CNS) of over 100 µM, a TGI (SF-295 CNS) of over 100 µM and a TGI (MOLT-4 leukemia) of over 100 µM. The TGI (MDA-MB-435) was over 100 µM, the TGI (MDA-N) was over 100 µM and the TGI (CCRF-CEM leukemia) was over 100 µM. For the same compound, the TGI (A498 renal) was over 100 µM, the TGI (U251 CNS) was over 100 µM and the TGI (UO-31 renal) was over 100 µM. It also gave a TGI (UACC-257 melanoma) of over 100 µM, a TGI (SK-MEL-2 melanoma) of over 100 µM and a TGI (SK-MEL-5 melanoma) of over 100 µM. The TGI (RXF 393 renal) was over 100 µM, the TGI (T-47D breast) was over 100 µM and the TGI (SN12C renal) was over 100 µM. For the same compound, the TGI (ACHN renal) was over 100 µM, the TGI (MALME-3M melanoma) was over 100 µM and the TGI (DU-145 prostate) was over 100 µM. It also gave a TGI (M14 melanoma) of over 100 µM, a TGI (NCI-H460 lung) of over 100 µM and a TGI (KM12 colon) of over 100 µM. For the same compound, the TGI (OVCAR-4 ovarian) was over 100 µM, the TGI (SK-MEL-28 melanoma) was over 100 µM and the TGI (SK-OV-3 ovarian) was over 100 µM. For the same compound, the TGI (SW-620 colon) was over 100 µM, the TGI (EKVX NSCLC) was over 100 µM and the TGI (OVCAR-5 ovarian) was over 100 µM. The TGI (786-0 renal) was over 100 µM, the TGI (HS 578T breast) was over 100 µM and the TGI (LOX IMVI melanoma) was over 100 µM. The TGI (MCF7 breast) was over 100 µM.

Work on `COc1cc2[nH]c(=O)c3cc(-c4ccccc4)cc4c(Cl)nc(c1OC)c2c43` yielded a TGI (NCI/ADR-RES ovarian) of over 38.3 µM, a TGI (CAKI-1 renal) of 71 µM and a TGI (A549 NSCLC) of over 71.7 µM. It also gave a TGI (SNB-19 CNS) of over 82.8 µM, a TGI (MDA-MB-231 breast) of over 100 µM and a TGI (SR leukemia) of over 100 µM. For the same compound, the TGI (HL-60(TB) leukemia) was 12.3 µM, the TGI (HOP-62 NSCLC) was over 72.7 µM and the TGI (HCC-2998 colon) was over 86.4 µM. It also gave a TGI (OVCAR-8 ovarian) of 98.4 µM, a TGI (COLO 205 colon) of 38.5 µM and a TGI (IGROV1 ovarian) of over 91 µM. The TGI (NCI-H522 lung) was over 89.2 µM, the TGI (TK-10 renal) was over 70 µM and the TGI (NCI-H226 lung) was over 100 µM. It also gave a TGI (RPMI-8226 leukemia) of over 100 µM, a TGI (PC-3 prostate) of over 100 µM and a TGI (HCT-15 colon) of over 75.8 µM. It also gave a TGI (OVCAR-3 ovarian) of over 100 µM, a TGI (UACC-62 melanoma) of 34.6 µM and a TGI (HT29 colon) of over 60.7 µM. It also gave a TGI (HCT-116 colon) of 12.9 µM, a TGI (SF-268 CNS) of over 55.9 µM and a TGI (SNB-75 CNS) of over 60.3 µM. The TGI (HOP-92 NSCLC) was over 79.3 µM, the TGI (K-562 leukemia) was over 100 µM and the TGI (BT-549 breast) was over 67 µM. The TGI (NCI-H23 lung) was 47.5 µM, the TGI (SF-295 CNS) was over 100 µM and the TGI (MOLT-4 leukemia) was over 44.7 µM. It also gave a TGI (MDA-MB-435) of 8.84 µM, a TGI (MDA-N) of 13.5 µM and a TGI (CCRF-CEM leukemia) of over 67 µM. It also gave a TGI (A498 renal) of over 100 µM, a TGI (U251 CNS) of 62.5 µM and a TGI (UO-31 renal) of over 65.1 µM. The TGI (UACC-257 melanoma) was 21.6 µM, the TGI (SK-MEL-2 melanoma) was 38.7 µM and the TGI (SK-MEL-5 melanoma) was 28 µM. It also gave a TGI (RXF 393 renal) of over 55.7 µM, a TGI (T-47D breast) of over 100 µM and a TGI (SN12C renal) of over 100 µM. It also gave a TGI (ACHN renal) of 77.6 µM, a TGI (MALME-3M melanoma) of 17.1 µM and a TGI (DU-145 prostate) of over 100 µM. The TGI (M14 melanoma) was over 62.9 µM, the TGI (NCI-H460 lung) was over 82.9 µM and the TGI (KM12 colon) was over 100 µM. The TGI (OVCAR-4 ovarian) was over 64.4 µM, the TGI (SK-MEL-28 melanoma) was over 100 µM and the TGI (SK-OV-3 ovarian) was over 73.9 µM. The TGI (SW-620 colon) was over 66.1 µM, the TGI (EKVX NSCLC) was 64 µM and the TGI (OVCAR-5 ovarian) was over 100 µM. The TGI (786-0 renal) was over 49.2 µM, the TGI (HS 578T breast) was over 100 µM and the TGI (LOX IMVI melanoma) was over 73.6 µM. It also gave a TGI (MCF7 breast) of 7.71 µM.

For `COc1ccc(C(C2=C(C)C(=O)c3ccccc3C2=O)c2ccc(C(C)C)cc(=O)c2O)cc1` (stereo not drawn), the TGI (CAKI-1 renal) was 7.91 µM, the TGI (A549 NSCLC) was 13.4 µM and the TGI (SR leukemia) was 21.3 µM. For the same compound, the TGI (HL-60(TB) leukemia) was 10.6 µM, the TGI (DMS 114 small cell lung) was 8.54 µM and the TGI (HOP-62 NSCLC) was 6.65 µM. For the same compound, the TGI (OVCAR-8 ovarian) was 45.7 µM, the TGI (COLO 205 colon) was 20.7 µM and the TGI (IGROV1 ovarian) was 12.6 µM. For the same compound, the TGI (NCI-H522 lung) was 48.6 µM, the TGI (M19-MEL melanoma) was 4.92 µM and the TGI (NCI-H226 lung) was 4.94 µM. It also gave a TGI (RPMI-8226 leukemia) of over 100 µM, a TGI (DLD-1 colon) of 18.4 µM and a TGI (HCT-15 colon) of 32.2 µM. It also gave a TGI (SNB-78 CNS) of 35.1 µM, a TGI (OVCAR-3 ovarian) of 8.54 µM and a TGI (HT29 colon) of 35.3 µM. The TGI (HCT-116 colon) was 14.7 µM, the TGI (SF-268 CNS) was 23 µM and the TGI (SNB-75 CNS) was 6.47 µM. It also gave a TGI (HOP-92 NSCLC) of 10.3 µM, a TGI (K-562 leukemia) of over 100 µM and a TGI (XF 498 CNS) of 34.1 µM. For the same compound, the TGI (SF-539 CNS) was 5.8 µM, the TGI (SF-295 CNS) was 23 µM and the TGI (MOLT-4 leukemia) was over 100 µM. For the same compound, the TGI (LXFL 529 NSCLC) was over 100 µM, the TGI (CCRF-CEM leukemia) was over 100 µM and the TGI (U251 CNS) was 10.9 µM. For the same compound, the TGI (UO-31 renal) was 5.12 µM, the TGI (SK-MEL-2 melanoma) was 22.3 µM and the TGI (SK-MEL-5 melanoma) was 15.2 µM. The TGI (SN12C renal) was 8.4 µM, the TGI (ACHN renal) was 9.96 µM and the TGI (MALME-3M melanoma) was over 100 µM. The TGI (M14 melanoma) was 6.24 µM, the TGI (NCI-H460 lung) was 12.6 µM and the TGI (KM12 colon) was over 100 µM. The TGI (OVCAR-4 ovarian) was over 100 µM, the TGI (SK-OV-3 ovarian) was 14.6 µM and the TGI (SW-620 colon) was over 100 µM. It also gave a TGI (OVCAR-5 ovarian) of 7.53 µM, a TGI (786-0 renal) of 6.26 µM and a TGI (DMS 273 small cell lung) of 5.4 µM. It also gave a TGI (LOX IMVI melanoma) of 17.6 µM.
